This note sets out measurements from patent US11718642B2, “Compositions and methods for treating CNS disorders” (Sage Therapeutics, Inc., priority 2018, dated 2023).

pIC50: −log10 of the molar value.

Usually pIC50 stands for −log10 of the IC50, conventionally taken in molar units.

For one assay, the target named is GABAA receptor. Kind of assay: Steroid inhibition of [35S]-TBPS binding, rat brain cortical membranes. The note with it: Table I-1, 3 nM [35S]-TBPS, in the presence of 5 mM GABA. How it is done: [^35S]-t-Butylbicyclophosphorothionate (TBPS) binding assays using rat brain cortical […] membranes in the presence of 5 mM GABA has been described (Gee et al, J. Pharmacol. Exp. Ther. 1987, 241, 346-353; Hawkinson et al, Mol. Pharmacol. 1994, 46, 977-985; Lewin, A. H et al., Mol. Pharmacol. 1989, 35, 189-194).
Briefly, cortices are rapidly removed following decapitation of carbon dioxide-anesthetized Sprague-Dawley rats (200-250 g). The cortices are homogenized in 10 volumes of ice-cold 0.32 M sucrose using a glass/teflon homogenizer and centrifuged at 1500×g for 10 min at 4° C. The resultant supernatants are centrifuged at 10,000×g for 20 min at 4° C. to obtain the P2 pellets. The P2 pellets are resuspended in 200 mM NaC/50 mM Na—K phosphate pH 7.4 buffer and centrifuged at 10,000×g for 10 min at 4° C. This washing procedure is repeated twice and the pellets are resuspended in 10 volumes of buffer. Aliquots ([…]) of the membrane suspensions are incubated with 3 nM [^35S]-TBPS and […] aliquots of test drug dissolved in dimethyl sulfoxide (DMSO) (final 0.5%) in the presence of 5 mM GABA. The incubation is brought to a final volume of 1.0 mL with buffer. Nonspecific binding is determined in the presence of […] unlabeled TBPS and ranged from 15 to 25%. Following a 90 min incubation at room temp, the assays are terminated by filtration through glass fiber filters (Schleicher and Schuell No. 32) using a cell harvester (Brandel) and rinsed three times with ice-cold buffer. Filter bound radioactivity is measured by liquid scintillation spectrometry. Non-linear curve fitting of the overall data for each drug averaged for each concentration is done using Prism (GraphPad). […] The concentration of test compound producing 50% inhibition (IC50) of specific binding and the maximal extent of inhibition (Imax) are determined for the individual experiments with the same model used for the overall data and then the means±SEM.s of the individual experiments are calculated.
Various compounds are or can be screened to determine their potential as modulators of [35S]-TBPS binding in vitro. These assays are or can be performed in accordance with the above.
For the compound `CC(=O)[C@H]1CC[C@H]2[C@@H]3COC4C[C@](C)(O)CC[C@@H]4[C@H]3CC[C@]12C` (stereo in doubt) [I-A15, 1-((1S,3aS,3bR,5aS,7R,9aR,9bS,11aS)-7-hydroxy-7,11a-dimethylhexadecahydroindeno[4,5-c]chromen-1-yl)ethan-1-one], the negative logarithm of the IC50 (pIC50) is 5.00 to 6.00.

Regarding `C[C@@]1(O)CC[C@@H]2[C@H]3CC[C@]4(C)[C@@H](C(=O)Cn5cc(C#N)cn5)CC[C@H]4[C@@H]3CO[C@@H]2C1` [I-A17, 1-(2-((1S,3aS,3bR,5aS,7R,9aR,9bS,1aS)-7-hydroxy-7,11a-dimethylhexadecahydroindeno[4,5-c]chromen-1-yl)-2-oxoethyl)-1H-pyrazole-4-carbonitrile], the pIC50 was 5.00 to 6.00.

The assay is the same for the next values; noted with them: Table II-2, 3 nM [35S]-TBPS, in the presence of 5 mM GABA.
Take `C[C@@]1(O)CC[C@H]2[C@H](CC[C@@H]3[C@@H]2CC[C@]2(C)[C@@H](C(=O)Cn4cc(C#N)cn4)OC[C@@H]32)C1` [II-A13b, 1-(2-((1S,3aS,3bR,5aR,7R,9aS,9bR,11aS)-7-hydroxy-7,11a-dimethylhexadecahydrophenanthro[1,2-c]furan-1-yl)-2-oxoethyl)-1H-pyrazole-4-carbonitrile]: the pIC50 was 5.00 to 6.00.

For the compound `CC(=O)[C@H]1OC[C@H]2[C@@H]3CC[C@@H]4C[C@](C)(O)CC[C@@H]4[C@H]3CC[C@]12C` [II-A11b, 1-((1S,3aS,3bR,5aR,7R,9aS,9bR,11aS)-7-hydroxy-7,11a-dimethylhexadecahydrophenanthro[1,2-c]furan-1-yl)ethan-1-one], the negative-log IC50 (pIC50) is at most 5.00.

`CC(=O)[C@H]1COC[C@H]2[C@@H]3CC[C@@H]4C[C@](C)(O)CC[C@@H]4[C@H]3CC[C@]12C` [II-B12, 1-((1R,4aS,4bR,6aR,8R,10aS,10bR,12aS)-8-hydroxy-8,12a-dimethylhexadecahydro-2H-naphtho[1,2-h]isochromen-1-yl)ethan-1-one]: the pIC50 is 6.00 to 7.00.

In the case of `C[C@@]1(O)CC[C@H]2[C@H](CC[C@@H]3[C@@H]2CC[C@]2(C)[C@@H](C(=O)Cn4cc(C#N)cn4)COC[C@@H]32)C1` [II-B14, 1-(2-((1R,4aS,4bR,6aR,8R,10aS,10bR,12aS)-8-hydroxy-8,12a-dimethylhexadecahydro-2H-naphtho[1,2-h]isochromen-1-yl)-2-oxoethyl)-1H-pyrazole-4-carbonitrile], the pIC50 is 6.00 to 7.00.
